Results as given in patent US20240246946A1, “MODULATORS OF TREX1” (Constellation Pharmaceuticals, Inc., priority 2021, published 2024).

Legend:
full length human TREX1 = biological target: T1, full length human TREX1 (Homo sapiens, UniProt Q9NSU2); experiment: TREX1 Kinetics Assays (TR-FRET association and dissociation, global fit with Kintek Explorer); type: binding; conditions: for Kd / residence time: hTREX1, TR-FRET kinetics; for koff / kon: hTREX1, TR-FRET, 25° C., global fit
T1 construct: N-terminally His-Tev tagged full length human TREX1; made in house; host or cells: E. coli
T1 sequence (Q9NSU2 1-314): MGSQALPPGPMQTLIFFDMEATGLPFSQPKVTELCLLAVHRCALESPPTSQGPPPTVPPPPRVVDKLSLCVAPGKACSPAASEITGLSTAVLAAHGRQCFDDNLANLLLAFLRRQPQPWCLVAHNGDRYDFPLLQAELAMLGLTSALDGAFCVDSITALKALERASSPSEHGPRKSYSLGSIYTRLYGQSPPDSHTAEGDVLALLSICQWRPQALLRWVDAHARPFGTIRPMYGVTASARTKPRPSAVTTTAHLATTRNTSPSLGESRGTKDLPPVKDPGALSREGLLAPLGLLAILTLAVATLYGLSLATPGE
Procedure: Compound binding kinetics were assessed using a pair of TR-FRET assays which measure the proportion of protein bound to a biotinylated TREX1 inhibitor (“probe”).
N-terminally His-Tev tagged full length human TREX1 (expressed in E. coli and purified in house), complexed with Eu-W1024-anti-6×His (“Eu”; PerkinElmer) in reaction buffer (50 mM Tris, 150 mM NaCl, 2 mM DTT, 0.1 mg/mL BSA, 0.01% (w/v) Tween-20, 5 mM MgCl2, pH 7.4) was combined with an equal volume of test compound in reaction buffer and incubated at 25° C. Concentrations at this stage were 1 nM TREX1/Eu complex, and four concentrations of compound (diluted from 10 mM stocks in 100% DMSO). At defined time points, 18 μL of this mixture was withdrawn and combined with 2 μL probe to a final concentration of 1 μM probe. After incubating for 30 seconds, 18 μL was withdrawn and combined with 2 μL streptavidin-allophycocyanin (“SA-APC”; PerkinElmer) to a final concentration of 1.5 μM SA-APC. Fifteen μL of this mixture was then immediately transferred to a 384-well Black ProxiPlate Plus (PerkinElmer) and read in an EnVision plate reader (PerkinElmer) measuring fluorescence at 615 nm and 665 nm following excitation w/337 nm laser light. Final concentrations were 0.8 nM TREX1/Eu complex, 0.9 μM probe, and 1.5 μM SA-APC.
N-terminally His-Tev tagged full length human TREX1 (expressed in E. coli and purified in house), complexed with Eu-W1024-anti-6×His (“Eu”; PerkinElmer) in reaction buffer (50 mM Tris, 150 mM NaCl, 2 mM DTT, 0.1 mg/mL BSA, 0.01% (w/v) Tween-20, 5 mM MgCl2, pH 7.4) was combined with an equal volume of test compound in reaction buffer. Concentrations at this stage were 100 nM TREX1/Eu complex and 100 nM test compound (diluted from 10 mM stocks in 100% DMSO). Following an equilibration period of at least an hour at 25° C., this mixture was diluted 100-fold into reaction buffer containing 1 μM probe, and incubated at 25° C. At defined time points, 36 μL of the reaction mixture was withdrawn and combined with 4 μL streptavidin-allophycocyanin (“SA-APC”; PerkinElmer) to a final concentration of 1.5 μM SA-APC. Fifteen μL of this mixture was then immediately transferred to duplicate wells of a 384-well Black ProxiPlate Plus (PerkinElmer) and read in an EnVision plate reader (PerkinElmer) measuring fluorescence at 615 nm and 665 nm following excitation w/337 nm laser light.
The TR-FRET signal, a ratio of 665 nm/615 nm emitted light, was converted to fraction enzyme bound to test compound by normalizing to low signal (no enzyme or test compound) and high signal (no test compound) controls. Data from both association and dissociation experiments were fitted globally using Kintek Explorer software, which computes the rate constants directly.

hTREX1 = biological target: T2, hTREX1 (Homo sapiens, UniProt Q9NSU2); experiment: hTREX1 HCT116 Cell Assay (HCT116 dual cells, Lucia luciferase reporter of Type I interferon induction); type: cell-based; conditions: TREX1i 4 h before pBR322/BstNI transfection, read after 48 h
T2 construct: host or cells: HCT116 dual cells
T2 sequence (Q9NSU2 1-314): T1 sequence (Q9NSU2 1-314)
In short: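 Type I interferon induction read as secreted Lucia luciferase 48 h after transfecting pBR322/BstNI digest (1 ug/mL, 100 ng/well) into HCT116 dual reporter cells. Compound added 4 h before transfection at up to 0.1% DMSO; cells in DMEM/10% FBS/25 mM HEPES at 37 °C.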

With `CC(c1nc(C(=O)Nc2cnoc2)c(O)c(=O)n1C)C(c1cnn(C)c1)c1ccccc1C#N` (single isomer, unassigned) [Example 2 D1E1] the Kd (full length human TREX1) was 0.231 nM, the residence time (full length human TREX1) was 368 min and the koff (full length human TREX1) was 4.53e-05 s⁻¹. For the same compound, the kon (full length human TREX1) was 197000 M⁻¹ s⁻¹ and the IC50 (hTREX1) was under 10 nM.
`CC(c1nc(C(=O)Nc2cnoc2)c(O)c(=O)n1C)C(c1ccccc1C#N)c1cn(C)nc1C#N` (single isomer, unassigned) [Example 10 D1E1] showed a Kd (full length human TREX1) of 0.036 nM, a residence time (full length human TREX1) of 613 min and a koff (full length human TREX1) of 2.72e-05 s⁻¹. The kon (full length human TREX1) was 757000 M⁻¹ s⁻¹ and the IC50 (hTREX1) was under 10 nM.
With `CCn1cc(C(c2ccccc2C#N)C(C)c2nc(C(=O)Nc3cnoc3)c(O)c(=O)n2C)cn1` (single isomer, unassigned) [Example 13 D1E1] the Kd (full length human TREX1) was 0.209 nM, the residence time (full length human TREX1) was 370 min and the koff (full length human TREX1) was 4.5e-05 s⁻¹. It also gave a kon (full length human TREX1) of 215000 M⁻¹ s⁻¹ and an IC50 (hTREX1) of under 10 nM.
With `CC(c1nc(C(=O)Nc2cnoc2)c(O)c(=O)n1C)C(c1cnn(C)c1)c1cc(F)ccc1C#N` (single isomer, unassigned) [Example 14 D1E2] the Kd (full length human TREX1) was 0.245 nM, the residence time (full length human TREX1) was 310 min and the koff (full length human TREX1) was 5.38e-05 s⁻¹. It also gave a kon (full length human TREX1) of 220000 M⁻¹ s⁻¹ and an IC50 (hTREX1) of under 10 nM.
For `CCn1cc(C(c2ccc(F)cc2C#N)C(C)c2nc(C(=O)Nc3cnoc3)c(O)c(=O)n2C)cn1` (single isomer, unassigned) [Example 16 D1E1], the Kd (full length human TREX1) was 0.245 nM, the residence time (full length human TREX1) was 461 min and the koff (full length human TREX1) was 3.62e-05 s⁻¹. For the same compound, the kon (full length human TREX1) was 147000 M⁻¹ s⁻¹ and the IC50 (hTREX1) was under 10 nM.
`CCn1cc(C(c2cc(F)ccc2C#N)C(C)c2nc(C(=O)Nc3cnoc3)c(O)c(=O)n2C)cn1` (single isomer, unassigned) [Example 17 D1E2] showed a Kd (full length human TREX1) of 0.28 nM, a residence time (full length human TREX1) of 353 min and a koff (full length human TREX1) of 4.72e-05 s⁻¹. It also gave a kon (full length human TREX1) of 168000 M⁻¹ s⁻¹ and an IC50 (hTREX1) of under 10 nM.
For `CC(c1nc(C(=O)Nc2cnoc2)c(O)c(=O)n1C)C(c1cnn(CC(F)(F)F)c1)c1ccccc1C#N` (single isomer, unassigned) [Example 22 D1E1], the Kd (full length human TREX1) was 0.614 nM, the residence time (full length human TREX1) was 256 min and the koff (full length human TREX1) was 6.5e-05 s⁻¹. For the same compound, the kon (full length human TREX1) was 106000 M⁻¹ s⁻¹ and the IC50 (hTREX1) was under 10 nM.
In the case of `CC(c1nc(C(=O)Nc2cnoc2)c(O)c(=O)n1C)C(c1cnn(CC2CC2)c1)c1ccccc1C#N` (single isomer, unassigned) [Example 23 D1E2], the Kd (full length human TREX1) is reported as 0.529 nM, the residence time (full length human TREX1) is reported as 290 min and the koff (full length human TREX1) is reported as 5.73e-05 s⁻¹. It also gave a kon (full length human TREX1) of 108000 M⁻¹ s⁻¹ and an IC50 (hTREX1) of 10 to 100 nM.
Compound `CC(c1nc(C(=O)Nc2cnoc2)c(O)c(=O)n1C)C(c1cnn(C)c1)c1cc(Cl)ccc1C#N` (single isomer, unassigned) [Example 26 D1E2] has a Kd (full length human TREX1) of 0.405 nM, a residence time (full length human TREX1) of 269 min and a koff (full length human TREX1) of 6.2e-05 s⁻¹. It also gave a kon (full length human TREX1) of 153000 M⁻¹ s⁻¹ and an IC50 (hTREX1) of 10 to 100 nM.
`CC(c1nc(C(=O)Nc2cnoc2)c(O)c(=O)n1C)C(c1cnn(C(F)F)c1)c1ccccc1C#N` (single isomer, unassigned) [Example 38 D1E1] showed a Kd (full length human TREX1) of 0.351 nM, a residence time (full length human TREX1) of 290 min and a koff (full length human TREX1) of 5.73e-05 s⁻¹. For the same compound, the kon (full length human TREX1) was 163000 M⁻¹ s⁻¹ and the IC50 (hTREX1) was under 10 nM.
`Cc1cncc(C(c2ccccc2C#N)C(C)c2nc(C(=O)Nc3cnoc3)c(O)c(=O)n2C)n1` (single isomer, unassigned) [Example 53 D1E2] showed a Kd (full length human TREX1) of 0.255 nM, a residence time (full length human TREX1) of 483 min and a koff (full length human TREX1) of 3.45e-05 s⁻¹. It also gave a kon (full length human TREX1) of 135000 M⁻¹ s⁻¹ and an IC50 (hTREX1) of under 10 nM.
In the case of `Cc1nn(C)cc1C(c1cc(F)ccc1C#N)C(C)c1nc(C(=O)Nc2cnoc2)c(O)c(=O)n1C` (single isomer, unassigned) [Example 57 D1E2], the residence time (full length human TREX1) is reported as 431 min, the koff (full length human TREX1) is reported as 3.87e-05 s⁻¹ and the IC50 (hTREX1) is reported as under 10 nM.
With `CC(c1nc(C(=O)Nc2cnoc2)c(O)c(=O)n1C)C(c1cnn(C)c1)c1ccccc1Cl` (single isomer, unassigned) [Example 77 D1E1] the Kd (full length human TREX1) was 0.338 nM, the residence time (full length human TREX1) was 215 min and the koff (full length human TREX1) was 7.77e-05 s⁻¹. For the same compound, the kon (full length human TREX1) was 230000 M⁻¹ s⁻¹ and the IC50 (hTREX1) was 10 to 100 nM.
For `Cc1nn(C)c(C)c1C(c1ccccc1C#N)C(C)c1nc(C(=O)Nc2cnoc2)c(O)c(=O)n1C` (single isomer, unassigned) [Example 78 D1E1], the residence time (full length human TREX1) was 413 min, the koff (full length human TREX1) was 4.03e-05 s⁻¹ and the IC50 (hTREX1) was under 10 nM.
`Cc1ncc(C(c2ccccc2C#N)C(C)c2nc(C(=O)Nc3cnoc3)c(O)c(=O)n2C)nc1C` (single isomer, unassigned) [Example 81 D1E2] showed a residence time (full length human TREX1) of 714 min, a koff (full length human TREX1) of 2.33e-05 s⁻¹ and an IC50 (hTREX1) of under 10 nM.
`CC(c1nc(C(=O)Nc2cnoc2)c(O)c(=O)n1C)C(c1ccccc1C#N)c1cn(C)nc1F` (single isomer, unassigned) [Example 91 D1E1] gave a residence time (full length human TREX1) of 1820 min, a koff (full length human TREX1) of 9.17e-06 s⁻¹ and an IC50 (hTREX1) of under 10 nM.
`CC(c1nc(C(=O)Nc2cnoc2)c(O)c(=O)n1C)C(c1cnn(C(C)C)c1)c1ccccc1C#N` (single isomer, unassigned) [Example 105 D1E2] showed a residence time (full length human TREX1) of 662 min, a koff (full length human TREX1) of 2.52e-05 s⁻¹ and an IC50 (hTREX1) of under 10 nM.
Compound `Cc1cc(C(c2cc(F)ccc2C#N)C(C)c2nc(C(=O)Nc3cnoc3)c(O)c(=O)n2C)n(C)n1` (single isomer, unassigned) [Example 111 D1E2] has a residence time (full length human TREX1) of 461 min, a koff (full length human TREX1) of 3.62e-05 s⁻¹ and an IC50 (hTREX1) of 10 to 100 nM.
`Cc1cnc(C(c2cc(F)ccc2C#N)C(C)c2nc(C(=O)Nc3cnoc3)c(O)c(=O)n2C)cn1` (single isomer, unassigned) [Example 115 D1E2] showed a residence time (full length human TREX1) of 515 min, a koff (full length human TREX1) of 3.23e-05 s⁻¹ and an IC50 (hTREX1) of under 10 nM.
With `Cc1nc(C)c(C(c2ccccc2C#N)C(C)c2nc(C(=O)Nc3cnoc3)c(O)c(=O)n2C)nc1C` (single isomer, unassigned) [Example 122 D1E1] the residence time (full length human TREX1) was 1450 min, the koff (full length human TREX1) was 1.15e-05 s⁻¹ and the IC50 (hTREX1) was under 10 nM.
`Cc1ncc(C(c2cc(F)ccc2C#N)C(C)c2nc(C(=O)Nc3cnoc3)c(O)c(=O)n2C)nc1C` (single isomer, unassigned) [Example 124 D1E2] showed a residence time (full length human TREX1) of 741 min, a koff (full length human TREX1) of 2.25e-05 s⁻¹ and an IC50 (hTREX1) of 10 to 100 nM.
With `Cc1ncc(C(c2ccccc2Cl)C(C)c2nc(C(=O)Nc3cnoc3)c(O)c(=O)n2C)nc1C` (single isomer, unassigned) [Example 125 D1E2] the residence time (full length human TREX1) was 543 min, the koff (full length human TREX1) was 3.07e-05 s⁻¹ and the IC50 (hTREX1) was under 10 nM.
`CCn1c(C(C)C(c2cnn(C)c2)c2ccccc2C#N)nc(C(=O)Nc2cnoc2)c(O)c1=O` (single isomer, unassigned) [Example 149 D1E2] was tested, and the residence time (full length human TREX1) was 505 min, the koff (full length human TREX1) was 3.3e-05 s⁻¹ and the IC50 (hTREX1) was 10 to 100 nM.
For `C[C@H](c1nc(C(=O)Nc2cnoc2)c(O)c(=O)n1C)[C@@H](c1cc(F)ccc1C#N)c1cn(C)nc1C#N` [Example 59 D1E2], the residence time (full length human TREX1) was 515 min, the koff (full length human TREX1) was 3.23e-05 s⁻¹ and the IC50 (hTREX1) was under 10 nM.
